Values joined by “and” are separate entries in the source; they are usually repeats but may differ in a detail not shown here. Equal entries are not always repeated. Where two headings read alike, the source gives them in different places.
How the values were obtained:
human platelet = settings: cited from earlier work; for IC50: literature, read-out: IC50, inhibition of AA-induced platelet aggregation
[1] = tested on: human platelet-rich plasma; assay: Inhibition of arachidonic acid-induced aggregation in human platelet-rich plasma; type: cell-based
Experimental: The R- and S-enantiomers were tested as inhibitors of arachidonic acid-induced aggregation in human platelet-rich plasma. Data for individual experiments (2 separate donors) are given as pIC50 (log molar inhibitory concentration of each drug which blocks aggregation to arachidonic acid by 50%) Inhibitors were preincubated for 1 minute prior to addition of arachidonic acid (200-400 μM). Changes in light transmission were measured as an index of aggregation and quantified after 4 minutes.

platelet function = settings: cited from earlier work
[2] = Homo sapiens, arithmetic average of raw data, N = 3, read-out: inhibitory concentration which blocks aggregation by 50%, AVE
[3] = Homo sapiens, average, N = 3, read-out: pIC50 (-1xLOG(0.000001xDATA)), AVE (converted)
[4] = Homo sapiens, geometric mean, N = 3, read-out: inhibitory concentration which blocks aggregation by 50%, back-transformed data (Geometric mean) AVE

IC50 [1, 2] [µM]	IC50 [1, 3] [µM]	IC50 [1, 4] [µM]	Structure (SMILES)	IC50 (human platelet) [µM]	also measured
			O=C1OC(c2ccc(-c3ccccc3)cc2)C(O)=C1O (centres unmarked) [Example 4-biphenyl]	135	
			O=C1OC(c2ccc(-c3ccc(Cl)cc3)cc2)C(O)=C1O (centres unmarked) [4-(4'-chlorobiphenyl)-2-hydroxytetronic acids]	44	
2.27	1.45	1.45	CCCCC/C=C\C/C=C\C/C=C\C/C=C\CC[C@@H]1OC(=O)C(O)=C1O [(S)-3,4 -Dihydroxy-5-[(all-Z)-3,6,9,12-octadecatetraenyl]-2 (5H)-furanone]		
			O=C1OC(c2ccc(Cl)cc2)C(O)=C1O (centres unmarked) [CHTA, 4-(4-chlorophenyl)-2-hydroxytetronic acid]		antilipidemic and antiaggregatory properties (human platelet): possesses antilipidemic and antiaggregatory properties; inhibition of platelet function (platelet function): inhibits platelet function by both enzyme inhibitory and ROS scavenging mechanisms resulting ultimately in the blockage of thromboxane A2 synthesis
653	647	647	CCCCC/C=C\C/C=C\C/C=C\C/C=C\CC[C@H]1OC(=O)C(O)=C1O [(R)-3,4-Dihydroxy-5-[all-Z)-3,6,9,12-octadecatetraenyl]-2(51H)-furanone]		IC50 ([1]; Homo sapiens, individual experiments, human platelet-rich plasma, arachidonic acid 200-400 μM, 1 minute preincubation, quantified after 4 minutes, read-out: inhibitory concentration which blocks aggregation to arachidonic acid by 50% (RAW DATA)): 764 µM; IC50 ([1]; Homo sapiens, individual experiments, human platelet-rich plasma, arachidonic acid 200-400 μM, read-out: pIC50 (-1xLOG(0.000001xDATA)) (converted)): 764 µM; pIC50 (-1xLOG(0.000001xDATA)) ([1]; individual experiments, human platelet-rich plasma, arachidonic acid 200-400 μM): 3.269 and 3.182; IC50 ([1]; individual experiments, human platelet-rich plasma, arachidonic acid 200-400 μM, 1 minute preincubation, quantified after 4 minutes, read-out: inhibitory concentration which blocks aggregation to arachidonic acid by 50% (RAW DATA)): 538 µM and 657 µM

Reference: patent publication US5656662A, “Synthesis of optically pure 4-alkenyl- or 4-alkanyl-2-hydroxytetronic acids” (The Ohio State University Research Foundation, priority 1995, dated 1997)
